The record followed here is the Kinase Knowledgebase extract (Sharma et al. 2016).

The target of experiment [1] is MAPK14 (human) (UniProt Q16539). Description: Inhibition of MAPK14 Kinase Activity by PHAS-I Assay. The settings on record: for inhibition: concentration not given here.
The target is the same in experiment [2]. The experiment can be described thus: Inhibition of LPS Stimulated TNF Production by U937 Cells.

Structures are written as SMILES.

MAPK14 (human), sequence (Q16539 whole entry, looked up): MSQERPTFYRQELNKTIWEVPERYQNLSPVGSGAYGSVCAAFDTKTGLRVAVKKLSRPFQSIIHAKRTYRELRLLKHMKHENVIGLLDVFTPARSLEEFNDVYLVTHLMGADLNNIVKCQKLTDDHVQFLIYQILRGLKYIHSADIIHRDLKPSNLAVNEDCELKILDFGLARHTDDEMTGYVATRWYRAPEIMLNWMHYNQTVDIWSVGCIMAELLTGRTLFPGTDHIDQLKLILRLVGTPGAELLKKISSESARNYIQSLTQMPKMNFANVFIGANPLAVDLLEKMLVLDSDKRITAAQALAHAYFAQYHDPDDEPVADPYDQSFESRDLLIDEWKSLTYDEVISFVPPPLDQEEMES

Turning to `CC(=O)OC(C)(C)C(=O)NCCc1[nH]nc(-c2ccc(F)cc2)c1-c1ccncc1`, the inhibition in experiment [1] was 70%; in experiment [2] (concentration not given here), 71%.
As for `O=S(=O)(Cc1ccccc1)NCCc1[nH]nc(-c2ccc(F)cc2)c1-c1ccncc1`, the inhibition came out at 96% in experiment [1] and 58% in experiment [2] (concentration not given here).
Take `COc1ccc(Cl)cc1S(=O)(=O)NCCCc1[nH]nc(-c2ccc(F)cc2)c1-c1ccncc1`: in experiment [1], the IC50 (in general, the concentration needed to halve the response being measured) is less than 100 nM. The molecule further returned an inhibition in experiment [2] (concentration not given here) of 64%.
`O=S(=O)(NCCCc1[nH]nc(-c2ccc(F)cc2)c1-c1ccncc1)c1ccccc1`: the inhibition turned out to be 74% in experiment [1] and 57% in experiment [2] (concentration not given here).
Take `O=[N+]([O-])c1ccc(S(=O)(=O)NCc2[nH]nc(-c3ccc(F)cc3)c2-c2ccncc2)cc1`: the results for the inhibition in experiment [1] and in experiment [2] (concentration not given here) were 47% and 2%, respectively.
In the case of `O=S(=O)(NCCCc1[nH]nc(-c2ccc(F)cc2)c1-c1ccncc1)c1ccc(F)cc1`, the inhibition in experiment [1] is 78%; in experiment [2] (concentration not given here), 62%.
`CC(=O)NCCc1[nH]nc(-c2ccc(F)cc2)c1-c1ccncc1`: the inhibition is 78% in experiment [1] and 79% in experiment [2] (concentration not given here).
In experiment [1], `O=C(NCCCc1[nH]nc(-c2ccc(F)cc2)c1-c1ccncc1)[C@@H]1CCCN1` displayed an inhibition of 85%. The IC100 in experiment [2] came to 0.36 µM.
Regarding `CCCCS(=O)(=O)NCCc1[nH]nc(-c2ccc(F)cc2)c1-c1ccncc1`, the results for the inhibition in experiment [1] and in experiment [2] (concentration not given here) were 84% and 53%, respectively.
As to `CCN(CC)C1CCN(C(=O)Cn2nc(-c3ccc(F)cc3)c(-c3ccncc3)c2C)C1` (centres undefined), the results for the inhibition in experiment [1] and in experiment [2] were 40% and 59 µM, respectively.
Turning to `CC1(C)[C@H]2CC[C@@]1(CS(=O)(=O)NCCc1[nH]nc(-c3ccc(F)cc3)c1-c1ccncc1)C(=O)C2`, the IC50 in experiment [1] was less than 100 nM. The molecule also had an inhibition in experiment [2] (concentration not given here) of 26%.
Turning to `C[C@H](NC(=O)NCCCc1[nH]nc(-c2ccc(F)cc2)c1-c1ccncc1)c1ccccc1`, the inhibition in experiment [1] turned out to be 85%; in experiment [2] (concentration not given here), 37%.
As to `Cc1ccc([C@@H](C)NC(=O)Cn2nc(-c3ccc(F)cc3)c(-c3ccncc3)c2C)cc1`, the inhibition in experiment [1] was 81%; in experiment [2] (concentration not given here) it was 45%.
Regarding `O=C(NCCCc1[nH]nc(-c2ccc(F)cc2)c1-c1ccncc1)C1CCC1`, the inhibition in experiment [1] is 66%. Also, the IC50 in experiment [2] turned out to be 990 nM.
Take `CCOC(=O)CCNC(=O)NCCc1[nH]nc(-c2ccc(F)cc2)c1-c1ccncc1`: the inhibition in experiment [1] came out at 69%; in experiment [2] (concentration not given here), 34%.
In turn, `COc1ccc(CN(CCc2ccccc2)C(=O)Cn2nc(-c3ccc(F)cc3)c(-c3ccncc3)c2C)cc1` gave an inhibition in experiment [1] of 75%. This molecule displayed an IC50 in experiment [2] greater than 10000 nM.
Turning to `Cc1c(-c2ccncc2)c(-c2ccc(F)cc2)nn1CC(=O)N(C)CC(=O)N(C)C`, the inhibition in experiment [1] amounted to 40%; in experiment [2] (concentration not given here) it was 31%.
On the same counts, the results for `Cc1cccc(OC(=O)c2ccc(NC(=O)Cn3nc(-c4ccc(F)cc4)c(-c4ccncc4)c3C)cc2)c1` are 89% and 7%.
Turning to `CCOC(=O)CNC(=O)NCCc1[nH]nc(-c2ccc(F)cc2)c1-c1ccncc1`, the inhibition in experiment [1] was determined as 74%. The IC50 in experiment [2] was 1100 nM.
As for `COC(=O)[C@H](CCSC)NC(=O)Cn1nc(-c2ccc(F)cc2)c(-c2ccncc2)c1C`, the figures for the inhibition in experiment [1] and in experiment [2] (concentration not given here) were 58% and 36%, respectively.
`O=C(NCCc1[nH]nc(-c2ccc(F)cc2)c1-c1ccncc1)Nc1ccc(Br)cc1`: the inhibition in experiment [1] is 51%; in experiment [2] (concentration not given here) it was 29%.
In experiment [1], `Cc1c(-c2ccncc2)c(-c2ccc(F)cc2)nn1CC(=O)N(CC(C)C)CC(C)C` gave an inhibition of 55%. In addition, in experiment [2], the IC50 is greater than 10000 nM.
In the case of `COC(=O)C1CN1C(=O)Cn1nc(-c2ccc(F)cc2)c(-c2ccncc2)c1C` (centres undefined), the inhibition is 45% in experiment [1] and 24% in experiment [2] (concentration not given here).
For `O=S(=O)(NCc1[nH]nc(-c2ccc(F)cc2)c1-c1ccncc1)c1cc2nnoc2c2ccccc12`, in that order: 50% and 32%.
`CC(=O)OCC(=O)NCCCc1[nH]nc(-c2ccc(F)cc2)c1-c1ccncc1` yielded an inhibition in experiment [1] of 74%. This molecule also returned an IC50 in experiment [2] of 680 nM.
`O=S(=O)(NCCc1[nH]nc(-c2ccc(F)cc2)c1-c1ccncc1)c1cccs1`: the inhibition came to 87% in experiment [1] and 53% in experiment [2] (concentration not given here).
Regarding `O=C(NCCc1[nH]nc(-c2ccc(F)cc2)c1-c1ccncc1)c1ccc(I)cc1`, the results for the inhibition in experiment [1] and in experiment [2] (concentration not given here) were 58% and 33%, respectively.
In the case of `COC(=O)c1ccccc1NC(=O)NCCc1[nH]nc(-c2ccc(F)cc2)c1-c1ccncc1`, the inhibition in experiment [1] came out at 76%; in experiment [2] (concentration not given here), 31%.
`O=C(NCCc1[nH]nc(-c2ccc(F)cc2)c1-c1ccncc1)N1CCCC1`: the figures for the inhibition in experiment [1] and in experiment [2] (concentration not given here) were 76% and 37%, respectively.
For `O=C(NCCc1[nH]nc(-c2ccc(F)cc2)c1-c1ccncc1)c1ccccn1`, the inhibition in experiment [1] is 52%; in experiment [2] (concentration not given here), 34%.
Take `O=C(NCCc1[nH]nc(-c2ccc(F)cc2)c1-c1ccncc1)Nc1ccc(-c2ccccc2)cc1`: the inhibition was determined as 35% in experiment [1] and 26% in experiment [2] (concentration not given here).
For `COc1cc(OC)c(NC(=O)NCc2[nH]nc(-c3ccc(F)cc3)c2-c2ccncc2)cc1O`, the inhibition in experiment [1] amounted to 4%; in experiment [2] (concentration not given here), 14%.
Regarding `O=C(NCCc1[nH]nc(-c2ccc(F)cc2)c1-c1ccncc1)c1ccccc1C(F)(F)F`, the inhibition in experiment [1] came to 54%; in experiment [2] (concentration not given here), 27%.
Consider `O=C(NCCc1[nH]nc(-c2ccc(F)cc2)c1-c1ccncc1)C1CCCC1`, for which the results for the inhibition in experiment [1] and in experiment [2] (concentration not given here) were 79% and 45%, respectively.
On the same counts, the results for `COC(=O)C(C)NC(=O)Cn1nc(-c2ccc(F)cc2)c(-c2ccncc2)c1C` (centres undefined) are 44% and 1%.
Regarding `CCOC(=O)CNC(=O)NCc1[nH]nc(-c2ccc(F)cc2)c1-c1ccncc1`, the inhibition in experiment [1] was 70%; in experiment [2] (concentration not given here), 27%.
For `O=C(NCc1[nH]nc(-c2ccc(F)cc2)c1-c1ccncc1)[C@@H]1CCCN1C(=O)C(F)(F)F`, the inhibition was determined as 96% in experiment [1] and 52% in experiment [2] (concentration not given here).
`C[C@H](NS(=O)(=O)[C@]12CC[C@@H](CC1=O)C2(C)C)c1[nH]nc(-c2ccc(F)cc2)c1-c1ccncc1`: the IC50 in experiment [1] was 830 nM. Besides, the inhibition in experiment [2] (concentration not given here) stood at 39%.
As to `CCOC(=O)NC(=O)NCc1[nH]nc(-c2ccc(F)cc2)c1-c1ccncc1`, the inhibition in experiment [1] was determined as 51%; in experiment [2] (concentration not given here), 24%.
Regarding `C=CCN(C(=O)Cn1nc(-c2ccc(F)cc2)c(-c2ccncc2)c1C)C1CCCCC1`, the inhibition turned out to be 50% in experiment [1] and 6% in experiment [2] (concentration not given here).
For `CCN(CC)C(=O)NCCc1[nH]nc(-c2ccc(F)cc2)c1-c1ccncc1`, in that order: 67% and 19%.
`CC1(C)[C@@H]2CC[C@]1(CCS(=O)(=O)NCc1[nH]nc(-c3ccc(F)cc3)c1-c1ccncc1)C(=O)C2` registered an IC50 in experiment [1] of 45 nM. In experiment [2] (concentration not given here), this molecule displayed an inhibition of 1%.
Take `O=C(NCCc1[nH]nc(-c2ccc(F)cc2)c1-c1ccncc1)Nc1ccc(OC(F)(F)F)cc1`: the inhibition in experiment [1] came to 48%; in experiment [2] (concentration not given here), 4%.
On to `CC[C@H](NC(=O)Cn1nc(-c2ccc(F)cc2)c(-c2ccncc2)c1C)c1ccccc1`, for which the inhibition in experiment [1] amounted to 48%; in experiment [2] (concentration not given here) it was 35%.
As to `O=C(NCCc1[nH]nc(-c2ccc(F)cc2)c1-c1ccncc1)Nc1ccccc1-c1ccccc1`, the figures for the inhibition in experiment [1] and in experiment [2] (concentration not given here) were 63% and 35%, respectively.
On to `O=C(NCc1[nH]nc(-c2ccc(F)cc2)c1-c1ccncc1)Nc1ccc(I)cc1`, for which the figures for the inhibition in experiment [1] and in experiment [2] (concentration not given here) were 27% and 35%, respectively.
`Cc1c(-c2ccncc2)c(-c2ccc(F)cc2)nn1CC(=O)NC1CCc2ccccc21` (centres undefined): the inhibition in experiment [1] was found to be 73%; in experiment [2] (concentration not given here), 25%.
Take `O=C(NCc1[nH]nc(-c2ccc(F)cc2)c1-c1ccncc1)c1cccc(CCl)c1`: the figures for the inhibition in experiment [1] and in experiment [2] (concentration not given here) were 83% and 21%, respectively.
Consider `O=C(NCCc1[nH]nc(-c2ccc(F)cc2)c1-c1ccncc1)c1ccccc1I`, for which the inhibition in experiment [1] worked out at 65%; in experiment [2] (concentration not given here), 23%.
Consider `COc1ccc(CC(=O)NCCc2[nH]nc(-c3ccc(F)cc3)c2-c2ccncc2)cc1OC`, for which the inhibition in experiment [1] turned out to be 61%; in experiment [2] (concentration not given here), 24%.
For the molecule `O=S(=O)(NCCc1[nH]nc(-c2ccc(F)cc2)c1-c1ccncc1)C(F)(F)F`, the inhibition in experiment [1] is 82%; in experiment [2] (concentration not given here), 66%.
`C[C@H](NS(=O)(=O)C[C@@]12CC[C@H](CC1=O)C2(C)C)c1[nH]nc(-c2ccc(F)cc2)c1-c1ccncc1`: the IC50 in experiment [1] was 160 nM. The inhibition in experiment [2] (concentration not given here) worked out at 60%.
`CCOC(=O)NCCc1[nH]nc(-c2ccc(F)cc2)c1-c1ccncc1`: the inhibition in experiment [1] is 79%; in experiment [2] (concentration not given here), 55%.
For `Cc1c(-c2ccncc2)c(-c2ccc(F)cc2)nn1CC(=O)NC(C)Cc1c[nH]c2ccccc12` (centres undefined), in that order: 65% and 28%.
Consider `CC1(C)[C@@H]2CC[C@]1(CS(=O)(=O)NCCc1[nH]nc(-c3ccc(F)cc3)c1-c1ccncc1)C(=O)C2`, for which the IC50 in experiment [1] came to 160 nM. The inhibition in experiment [2] (concentration not given here) worked out at 44%.
Turning to `O=S(=O)(NCc1[nH]nc(-c2ccc(F)cc2)c1-c1ccncc1)c1ccc(OC(F)(F)F)cc1`, the inhibition in experiment [1] turned out to be 42%. In experiment [2], this molecule registered an IC50 of 3630 nM.
As to `CNC(=O)CC[C@H](NC(=O)c1ccc(I)cc1)c1[nH]nc(-c2ccc(F)cc2)c1-c1ccncc1`, the IC50 in experiment [1] was determined as 3280 nM. In experiment [2] (concentration not given here), this molecule had an inhibition of 8%.
As to `Cc1c(-c2ccncc2)c(-c2ccc(F)cc2)nn1CC(=O)N1CCCN(C)CC1`, the inhibition in experiment [1] was determined as 51%; in experiment [2] (concentration not given here), 24%.
Consider `CCOC(=O)COc1cccc(NC(=O)Cn2nc(-c3ccc(F)cc3)c(-c3ccncc3)c2C)c1`, for which the values for the inhibition in experiment [1] and in experiment [2] (concentration not given here) were 83% and 36%, respectively.
On the same counts, the results for `CCc1ccccc1NC(=O)NCCc1[nH]nc(-c2ccc(F)cc2)c1-c1ccncc1` are 79% and 22%.
On to `Cc1c(-c2ccncc2)c(-c2ccc(F)cc2)nn1CC(=O)N(C)CCN1CCOCC1`, for which the figures for the inhibition in experiment [1] and in experiment [2] (concentration not given here) were 32% and 28%, respectively.
For the molecule `CCCNC(=O)NCCc1[nH]nc(-c2ccc(F)cc2)c1-c1ccncc1`, the values for the inhibition in experiment [1] and in experiment [2] (concentration not given here) were 70% and 73%, respectively.
